The text below walks through data of PubChem BioAssay AID179 (DTP/NCI, 2004).

The assay has as its system CEM cells HIV-1 protection, formazan growth assay. Briefly: NCI AIDS Antiviral Assay. As to conditions: for IC50: measured here: growth of uninfected CEM cells. Summed up: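 Steps: treat uninfected and HIV-1-infected human CEM cells at five drug levels; quantify growth by soluble formazan; retest any compound reaching 50% protection; classify actives from the retest.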

Active and inactive are the calls of the source.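 How the source made its calls: active means compounds giving half or more protection of infected cells from virus-caused growth loss, again on retest; inactive means the rest.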

Turning to `O=C1CCC(=O)N1Cc1ccccc1N=[N+]([O-])c1ccccc1CN1C(=O)CCC1=O`, the outcome was inactive and the IC50 is > 200 µM.
As for `Cc1ccc(S(=O)OC2C3CC4CC(C3)CC2C4)cc1` (configuration not stated), the result was inactive.
Turning to `COC(=O)C1(NC(=O)C(CC(=O)OCc2ccccc2)NC(=O)OCc2ccccc2)CCCCCC1` (configuration not stated), the EC50 is > 200 µM and the 50% inhibitory concentration (IC50) stood at 107 µM.
Consider `c1ccc(SC(Sc2ccccc2)=C2CCC2)cc1`, for which the result was inactive.
For the compound `Cc1ccc(S(=O)(=O)Sc2nnnn2-c2ccccc2)cc1`, the EC50 is > 15.8 µM and the IC50 was > 15.8 µM.
Take `Cc1nnc2c3c(-c4ccccc4)c(-c4ccccc4)oc3nc(N(C)C)n12`: the result was inactive.
As for `Cc1cc[n+]2n1CC(O)C2` (configuration not stated), the result was inactive.
Turning to `C=CCSCn1ncc2ccc([N+](=O)[O-])cc21`, the EC50 was > 200 µM and the IC50 is 33.9 µM.
Consider `COc1ccc(Nc2cc(N)nc(N)n2)c(=S)[nH]1`, for which the EC50 was > 676 µM and the IC50 was determined as 57.5 µM.
As to `CSc1nc(=O)cnn1C`, the EC50 was > 200 µM and the IC50 is > 200 µM.
In the case of `Cc1ccc[n+](N)c1N`, the EC50 is > 1000 µM and the IC50 was > 1000 µM.
On to `COc1ccc(N=Nc2c(-c3ccccc3)nn(C(=O)CC(=O)Nc3cccc(Cl)c3)c2-c2ccccc2)cc1`, for which the EC50 is > 18.2 µM and the IC50 was > 18.2 µM.
With `O=S1(=O)OC2(c3ccccc31)c1cc(Br)c(O)c(O)c1Oc1c2cc(Br)c(O)c1O`, the EC50 was > 39.8 µM and the concentration for half-maximal inhibition (IC50) turned out to be 36.3 µM.
Consider `COC1OC2COC(C)(C)OC2C2OC(C)(C)OC12` (configuration not stated), for which the EC50 is > 200 µM and the IC50 was 182 µM.
As for `NC(=O)c1ccc[c]([Sb](=[O])([OH])[OH])c1`, the EC50 is 10.5 µM and the IC50 turned out to be 398 µM.
Take `CCOC(=O)c1ccccc1-c1c2cc(Br)c(=O)c(Br)c-2oc2c(Br)c(O)c(Br)cc12`: the concentration for a half-maximal effect (EC50) was > 200 µM and the IC50 came to 12 µM.
The corresponding values for `Nc1ccc(Cl)cc1C(=O)N1CCN(c2ccc([N+](=O)[O-])cn2)CC1` are > 132 µM and 27.5 µM.
On to `O=C1NC2(CCCC2)C2CCCCC12O` (configuration not stated), for which the outcome was inactive.
`O=C1CC2CCCC23CC2(CCN13)OCCO2` (configuration not stated): the result was inactive.
Consider `CC1=CC(C)(C)Nc2ccccc2N1`, for which the EC50 was > 200 µM and the IC50 was > 200 µM.
Take `CN(C)CCNC1c2ccccc2CCc2ccccc21`: the result was inactive.
With `CC(=O)OC1=NC(C)c2c1cc(OC(C)=O)[nH]c2=O` (configuration not stated), the EC50 is > 14.5 µM and the IC50 was > 14.5 µM.
For the compound `N=C(N)SC12CC3CC(CC(C3)C1)C2`, the EC50 is > 200 µM and the IC50 turned out to be 138 µM.
On to `CN(C)c1ccc(C(C2=C(O)c3ccccc3C(=O)C2=O)C2=C(O)c3ccccc3C(=O)C2=O)cc1`, for which the EC50 is > 200 µM and the IC50 stood at 30.9 µM.
The corresponding values for `CCOC(=O)c1[nH]cc(C)c1-c1ccn(-c2ccccc2)c1` are > 200 µM and 45.7 µM.
Consider `COc1ccc2nc3cc(Cl)ccc3c(NCCCN(C)CCCNc3ccc4ncn5c6ccccc6c(=O)c3c45)c2c1`, for which the EC50 is > 0.251 µM and the IC50 was found to be 0.166 µM.
On to `CCOC(=O)C(=[N+]=[N-])C(=O)C[N+]12CCN(CC1)CC2`, for which the EC50 is > 200 µM and the IC50 was > 200 µM.
Regarding `O=c1c2ccccc2sc2nc(CCl)nn12`, the EC50 is > 355 µM and the IC50 was 57.5 µM.
In the case of `CCOC(=O)[C@H]1Nc2c(cccc2[N+](=O)[O-])C2c3ccccc3CC21` (some centres not stated), the EC50 was > 15.5 µM and the IC50 was > 15.5 µM.
`CCCCCCCCCCCC(=O)c1c(O)cc(C)oc1=O`: the EC50 was > 100 µM and the half-inhibitory concentration (IC50) is 5.37 µM.
Take `O=C1/C(=C/c2cccc([N+](=O)[O-])c2)COc2ccc(Br)cc21`: the EC50 was > 10.5 µM and the IC50 is > 10.5 µM.
On to `O=C(NCCCCCN1CCC2(CCCCC2)CC1)C(C1CCCCC1)C1CCCCC1`, for which the EC50 was > 100 µM and the IC50 was found to be 9.33 µM.
In the case of `O=S1OC2(c3ccccc3-c3ccccc32)c2ccccc21` (configuration not stated), the outcome was inactive.
Consider `COc1ccc(C2Oc3c(cccc3OC)C=C2[N+](=O)[O-])cc1OC` (configuration not stated), for which the EC50 is > 200 µM and the IC50 is 1.2 µM.
The corresponding values for `CN1C[C@H]2[C@@H](C1=O)[C@H](c1ccc([N+](=O)[O-])cc1)ON2C` are > 200 µM and > 200 µM.
The corresponding values for `Cc1cc(N=Nc2ccc(-c3ccc(N=Nc4ccc(O)c(C(=O)O)c4)cc3)cc2)c(C)cc1N` are > 100 µM and 41.7 µM.
Consider `CCOC(=O)C(=Cc1ccc(C(=O)OC)cc1)C(=O)OCC`, for which the EC50 is > 85.1 µM and the half-maximal inhibitory concentration (IC50) came out at 12.6 µM.
Turning to `O=C(O)/C(=C/c1ccccc1[N+](=O)[O-])c1cccs1`, the EC50 is > 912 µM and the concentration for half-maximal inhibition (IC50) turned out to be 457 µM.
`CCCCN(Cc1ccccc1)C(=NC#N)N(Cc1ccccc1)Cc1ccccc1`: the EC50 was > 4.9 µM and the IC50 was > 4.9 µM.
Take `COc1ccc2c(c1)[n+](=O)c(C(=O)CC(=O)C(=O)Nc1cccc(Cl)c1C)c(C)n2[O-]`: the EC50 is > 100 µM and the IC50 worked out at 46.8 µM.
As to `O=C(O)[C@@H]1OCCOCCO[C@@H](C(=O)O)[C@H](C(=O)O)OCCOCCO[C@H]1C(=O)O`, the EC50 was > 562 µM and the IC50 is > 562 µM.
Take `COc1ccc([N+](=O)[O-])c2c(NCC(O)CO)ccnc12` (configuration not stated): the EC50 was > 200 µM and the IC50 worked out at 29.5 µM.
For the compound `CC1CCc2[nH]nc(CC3CC(=O)NC(=O)C3)c2C1` (configuration not stated), the EC50 is > 200 µM and the IC50 is > 200 µM.
Regarding `FC(F)(F)C(C1=NC(C(F)(F)F)(C(F)(F)F)N=C(N2CCOCC2)O1)C(F)(F)F`, the EC50 is > 2 µM and the IC50 is > 2 µM.
As to `CC1=CC=NN2C(=O)[C@H](C)C2C1` (some centres not stated), the EC50 is > 1510 µM and the IC50 is > 1510 µM.
`O=C1c2ccccc2-n2nnnc2C2CSCN12` (configuration not stated): the EC50 is > 200 µM and the half-inhibitory concentration (IC50) is > 200 µM.
As to `O=C(O)/C=C/C=C/C(=O)O`, the EC50 is > 200 µM and the IC50 was > 200 µM.
Consider `O=C1C(c2ccccc2)=C(c2ccccc2)C(c2ccc(CCCCCCc3ccc(C4=C(c5ccccc5)C(=O)C(c5ccccc5)=C4c4ccccc4)cc3)cc2)=C1c1ccccc1`, for which the EC50 was > 1.23 µM and the IC50 was > 1.23 µM.
In the case of `Cn1c(=O)c(C(=O)NC(=O)NCCCCCOC(=O)CCCCCCCCCCC(=O)OCCCCCNC(=O)NC(=O)c2cn(Cc3ccccc3)c(=O)n(C)c2=O)cn(Cc2ccccc2)c1=O`, the EC50 was > 7.41 µM and the IC50 is > 7.41 µM.
As to `Cc1ccc(S(=O)(=O)N2CCCC2C(=O)O[C@H]2CC[C@H]3CC=C[C@H]32)cc1` (some centres not stated), the EC50 was > 200 µM and the IC50 turned out to be 20.9 µM.
Regarding `CC(=O)OCC1OC(n2c(-c3ccc(Cl)cc3)cc(-c3ccccc3)c(C#N)c2=S)C(OC(C)=O)C(OC(C)=O)C1OC(C)=O` (configuration not stated), the EC50 was > 200 µM and the IC50 was determined as 145 µM.
Consider `CCCCCCCCc1cc2c(O)c(c1)Cc1cc(CCCCCCCC)cc(c1O)Cc1cc(CCCCCCCC)cc(c1O)Cc1cc(CCCCCCCC)cc(c1O)Cc1cc(CCCCCCCC)cc(c1O)Cc1cc(CCCCCCCC)cc(c1O)C2`, for which the outcome was inactive.
Consider `CC(=O)O[C@H]1CC[C@@]2(C)C(=CC[C@H]3C(CC#N)[C@@](C)(C#N)CCC32)C1` (some centres not stated), for which the result was inactive.
As to `CP(=O)(CCSc1ccccc1)c1ccccc1` (configuration not stated), the EC50 was > 661 µM and the IC50 was > 661 µM.
As for `O=c1n(Cc2ccccc2)c(=O)n2c(=O)n(Cc3ccccc3)c(=O)n12`, the EC50 is > 200 µM and the IC50 came to 148 µM.
As to `O=C(OC[C@H]1C[C@H]2C(=O)CCC[C@H]2O1)c1ccccc1`, the EC50 is > 200 µM and the IC50 was > 200 µM.
Turning to `Cc1nc2ccccc2c(=O)n1/N=C(\N=Nc1cc(Cl)ccc1Cl)c1ccc(N(C)C)cc1`, the result was inactive.
As to `C[S+](C)CCOC(=O)C(=[N+]=[N-])c1ccc([N+](=O)[O-])cc1`, the outcome was inactive.
Consider `O=S(=O)(O)CCS(=O)(=O)O`, for which the EC50 is > 200 µM and the IC50 is > 200 µM.
In the case of `CCOC(=O)c1c(-c2ccc(Cl)cc2)c(C#N)c(=S)n(C2OC(COC(C)=O)C(OC(C)=O)C(OC(C)=O)C2OC(C)=O)c1C` (configuration not stated), the EC50 is > 200 µM and the concentration for half-maximal inhibition (IC50) came to 36.3 µM.
`CCN(CC)C(=S)N/N=C/c1ccccn1`: the EC50 is > 0.2 µM and the IC50 amounted to 0.00363 µM.
Take `Cc1nc2c(=O)[nH]c3ccc(Cl)cc3c2o1`: the EC50 was > 200 µM and the IC50 was 148 µM.
Turning to `O=c1c2ccccc2oc2c(Cl)cc(Cl)cc12`, the EC50 is > 490 µM and the half-inhibitory concentration (IC50) came out at 263 µM.
For the compound `CO/N=C(\C(=O)OC(=NC1CCCCC1)NC1CCCCC1)c1csc(NC(c2ccccc2)(c2ccccc2)c2ccccc2)n1`, the EC50 was > 200 µM and the half-inhibitory concentration (IC50) came to 52.5 µM.
Take `O=C(c1no[n+]([O-])c1C(=O)c1csc2ccccc12)c1csc2ccccc12`: the EC50 was > 200 µM and the IC50 was 1.05 µM.
Turning to `COc1cc(OC)cc(Oc2nc3cc(F)c(F)cc3nc2-c2ccccc2)c1`, the EC50 was > 200 µM and the IC50 was > 200 µM.
As to `Cc1ccc2c(c1)sc1n[nH]c(=S)n12`, the EC50 is > 117 µM and the IC50 was > 117 µM.
As for `CC1=C2C(=C(CBr)OS1(=O)=O)C(=O)c1ccccc12`, the EC50 is > 741 µM and the IC50 came to 38.9 µM.
On to `CC(=O)c1cc(I)c(O)c2ncccc12`, for which the EC50 was > 79.4 µM and the half-maximal inhibitory concentration (IC50) was 1.45 µM.
Consider `N#CCCC1(CCC#N)CCCCCCC(CCC#N)(CCC#N)C(=O)C1=O`, for which the EC50 is > 200 µM and the IC50 was > 200 µM.
In the case of `COc1ccc(-c2c(C#N)c(S)n(NS(=O)(=O)c3ccccc3)c(=O)c2C#N)cc1`, the EC50 is > 200 µM and the IC50 was 12.6 µM.
On to `CC(C)=CCN1Cc2cc(Cl)cc3[nH]c(=S)n(c23)CC1C` (configuration not stated), for which the result was active and the IC50 is 26.9 µM.

The IC50 is the midpoint of a concentration-inhibition curve. As usually defined, the EC50 is the concentration needed to bring the measured effect to its halfway point.
